# Results from ChEMBL document CHEMBL6096693, “Fragment-to-Lead Medicinal Chemistry Publications in 2023” (J Med Chem, 2025).
# Legend:
# [1] = Binding affinity to Interleukin-1beta (unknown origin) assessed as dissociation constant by SPR analysis; design: species or system Homo sapiens
# [2] = target: Bromodomain-containing protein 4 (Homo sapiens, UniProt O60885); assay: Inhibition of BRD4 BD1 (unknown origin) using biotinylated tetra-acetylated H4 peptide SGRG-K(Ac)-GG-K(Ac)-GLG-K(Ac)-GGA-K(Ac)-RHRK-Biotin as substrate incubated for 60 mins by TR-FRET analysis
# [3] = target: Epidermal growth factor receptor (Homo sapiens, UniProt P00533); assay: Inhibition of EGFR (unknown origin)
# [4] = target: T1, ATPase family AAA domain-containing protein 2 (Homo sapiens, UniProt Q6PL18); assay: Inhibition of recombinant ATAD2 bromodomain (unknown origin) by TR-FRET assay
# T1 sequence (Q6PL18 whole entry): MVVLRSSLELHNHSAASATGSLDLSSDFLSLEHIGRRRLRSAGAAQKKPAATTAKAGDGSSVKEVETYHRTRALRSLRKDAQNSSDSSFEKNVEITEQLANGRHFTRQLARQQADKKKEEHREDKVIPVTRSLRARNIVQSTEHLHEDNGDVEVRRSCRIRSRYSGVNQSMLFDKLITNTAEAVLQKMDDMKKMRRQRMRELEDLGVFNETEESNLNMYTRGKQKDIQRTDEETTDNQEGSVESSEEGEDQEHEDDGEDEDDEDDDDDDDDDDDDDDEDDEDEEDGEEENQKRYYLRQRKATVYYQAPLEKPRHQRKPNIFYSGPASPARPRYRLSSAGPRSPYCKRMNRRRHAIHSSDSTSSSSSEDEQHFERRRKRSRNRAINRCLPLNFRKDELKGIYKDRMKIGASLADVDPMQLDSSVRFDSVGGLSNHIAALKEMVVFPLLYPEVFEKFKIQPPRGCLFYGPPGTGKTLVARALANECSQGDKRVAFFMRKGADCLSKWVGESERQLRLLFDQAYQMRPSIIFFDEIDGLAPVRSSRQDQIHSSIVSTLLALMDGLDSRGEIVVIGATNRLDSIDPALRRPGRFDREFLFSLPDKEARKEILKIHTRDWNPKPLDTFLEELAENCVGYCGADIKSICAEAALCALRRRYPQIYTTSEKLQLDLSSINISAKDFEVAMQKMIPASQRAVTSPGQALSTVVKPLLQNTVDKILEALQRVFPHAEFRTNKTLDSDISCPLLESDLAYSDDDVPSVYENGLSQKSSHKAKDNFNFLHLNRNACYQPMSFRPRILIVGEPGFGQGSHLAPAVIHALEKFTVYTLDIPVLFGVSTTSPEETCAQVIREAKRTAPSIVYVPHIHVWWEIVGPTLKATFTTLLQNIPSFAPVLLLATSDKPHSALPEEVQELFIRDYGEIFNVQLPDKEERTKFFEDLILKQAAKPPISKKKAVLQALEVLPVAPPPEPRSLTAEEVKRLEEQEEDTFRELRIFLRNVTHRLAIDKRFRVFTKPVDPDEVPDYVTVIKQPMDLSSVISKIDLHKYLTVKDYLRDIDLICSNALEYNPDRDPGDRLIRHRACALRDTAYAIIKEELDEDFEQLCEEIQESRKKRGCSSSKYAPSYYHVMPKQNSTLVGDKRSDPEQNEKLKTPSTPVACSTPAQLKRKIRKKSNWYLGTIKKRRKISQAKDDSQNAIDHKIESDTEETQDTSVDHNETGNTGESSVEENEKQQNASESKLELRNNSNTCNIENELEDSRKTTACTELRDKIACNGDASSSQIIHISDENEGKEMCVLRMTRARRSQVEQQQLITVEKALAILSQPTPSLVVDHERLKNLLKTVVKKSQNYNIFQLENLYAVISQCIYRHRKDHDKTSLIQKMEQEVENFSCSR
# [5] = target: Bifunctional dihydrofolate reductase-thymidylate synthase (Plasmodium falciparum K1, UniProt P13922); assay: Binding affinity to Plasmodium falciparum DHFR assessed as inhibition constant
# [6] = Inhibition of SARS-CoV2 Mac1 extracted from Escherichia coli Rosetta2 (DE3); design: species or system Severe acute respiratory syndrome coronavirus 2
# Coagulation factor XII = target: T2, Coagulation factor XII (Homo sapiens, UniProt P00748); assay: Inhibition of human FXIIa (unknown origin)
# T2 sequence (P00748 whole entry): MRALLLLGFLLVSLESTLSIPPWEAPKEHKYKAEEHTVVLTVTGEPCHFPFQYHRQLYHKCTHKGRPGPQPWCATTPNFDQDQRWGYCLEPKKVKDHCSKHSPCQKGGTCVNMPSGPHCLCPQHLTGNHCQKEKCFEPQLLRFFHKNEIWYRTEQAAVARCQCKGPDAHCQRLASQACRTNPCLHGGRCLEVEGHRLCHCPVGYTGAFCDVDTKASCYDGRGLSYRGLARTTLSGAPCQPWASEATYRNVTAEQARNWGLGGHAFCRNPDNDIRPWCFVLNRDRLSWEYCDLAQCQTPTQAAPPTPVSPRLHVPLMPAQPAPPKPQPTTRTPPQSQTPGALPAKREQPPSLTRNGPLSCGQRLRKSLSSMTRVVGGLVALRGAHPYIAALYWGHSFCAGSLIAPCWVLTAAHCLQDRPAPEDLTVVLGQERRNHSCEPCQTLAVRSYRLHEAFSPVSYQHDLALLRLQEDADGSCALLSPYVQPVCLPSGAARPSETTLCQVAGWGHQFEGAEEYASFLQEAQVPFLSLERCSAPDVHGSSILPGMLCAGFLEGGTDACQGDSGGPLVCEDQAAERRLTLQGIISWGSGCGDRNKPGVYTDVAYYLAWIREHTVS
# Chain of Epidermal growth factor receptor (P00533 whole entry, the tested form may be a part): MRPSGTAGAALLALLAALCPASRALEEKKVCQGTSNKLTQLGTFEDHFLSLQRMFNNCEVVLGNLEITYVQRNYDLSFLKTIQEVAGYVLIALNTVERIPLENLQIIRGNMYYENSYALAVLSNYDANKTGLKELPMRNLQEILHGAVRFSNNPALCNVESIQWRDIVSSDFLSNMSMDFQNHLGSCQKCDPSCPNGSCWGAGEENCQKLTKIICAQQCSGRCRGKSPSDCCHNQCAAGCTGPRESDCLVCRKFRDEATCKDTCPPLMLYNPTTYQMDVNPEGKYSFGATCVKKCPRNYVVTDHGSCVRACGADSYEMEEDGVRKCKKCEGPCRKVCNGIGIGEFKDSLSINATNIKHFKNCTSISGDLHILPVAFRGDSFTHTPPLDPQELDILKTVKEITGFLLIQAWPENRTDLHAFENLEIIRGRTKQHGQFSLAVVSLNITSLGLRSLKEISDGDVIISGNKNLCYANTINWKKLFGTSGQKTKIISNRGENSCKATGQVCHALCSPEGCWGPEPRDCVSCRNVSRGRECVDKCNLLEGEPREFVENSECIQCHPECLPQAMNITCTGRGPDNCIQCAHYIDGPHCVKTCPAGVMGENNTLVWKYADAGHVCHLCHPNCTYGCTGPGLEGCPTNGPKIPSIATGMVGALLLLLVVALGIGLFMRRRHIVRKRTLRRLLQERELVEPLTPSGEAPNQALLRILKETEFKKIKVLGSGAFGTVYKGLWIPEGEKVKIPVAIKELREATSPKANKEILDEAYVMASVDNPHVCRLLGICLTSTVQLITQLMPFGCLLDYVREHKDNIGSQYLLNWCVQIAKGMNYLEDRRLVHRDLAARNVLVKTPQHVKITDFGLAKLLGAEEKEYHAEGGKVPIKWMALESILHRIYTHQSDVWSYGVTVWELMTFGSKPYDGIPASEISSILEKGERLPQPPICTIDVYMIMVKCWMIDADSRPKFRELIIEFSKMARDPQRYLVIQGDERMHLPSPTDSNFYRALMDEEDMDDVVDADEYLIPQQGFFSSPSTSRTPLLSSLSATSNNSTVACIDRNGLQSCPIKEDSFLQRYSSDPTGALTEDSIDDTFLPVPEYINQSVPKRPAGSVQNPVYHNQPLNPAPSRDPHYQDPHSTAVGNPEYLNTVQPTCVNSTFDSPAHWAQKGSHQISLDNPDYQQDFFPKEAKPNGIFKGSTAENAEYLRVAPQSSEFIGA
# Chain of Bifunctional dihydrofolate reductase-thymidylate synthase (P13922 whole entry): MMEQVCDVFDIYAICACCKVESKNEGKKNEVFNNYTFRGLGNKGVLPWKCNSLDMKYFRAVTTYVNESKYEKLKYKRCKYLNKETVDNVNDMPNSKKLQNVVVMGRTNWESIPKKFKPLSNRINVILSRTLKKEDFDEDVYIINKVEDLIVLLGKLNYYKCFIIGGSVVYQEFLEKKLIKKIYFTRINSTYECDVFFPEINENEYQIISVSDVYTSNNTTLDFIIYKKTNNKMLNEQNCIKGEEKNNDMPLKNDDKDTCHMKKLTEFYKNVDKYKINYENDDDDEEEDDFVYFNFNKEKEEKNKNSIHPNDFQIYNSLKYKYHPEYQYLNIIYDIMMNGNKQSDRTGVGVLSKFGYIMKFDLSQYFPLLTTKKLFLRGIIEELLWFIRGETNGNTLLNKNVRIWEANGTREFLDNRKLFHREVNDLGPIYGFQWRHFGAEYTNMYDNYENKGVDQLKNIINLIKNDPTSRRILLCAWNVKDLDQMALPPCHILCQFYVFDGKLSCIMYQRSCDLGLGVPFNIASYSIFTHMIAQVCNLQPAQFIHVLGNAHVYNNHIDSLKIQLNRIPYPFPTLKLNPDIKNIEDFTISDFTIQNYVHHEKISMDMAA
smiles,measurement,setting,value
Cc1ccc2c(c1)NC(=O)[C@@]2(c1cn[nH]c1)c1cc(-c2ccc(C(=O)O)cc2C(=O)O)ccc1O,Kd,[1],1.1 µM
O=C(O)c1cc(-c2c[nH]c3ccccc23)on1,IC50,[2],97 µM
C=CC(=O)Nc1ccccn1,IC50,[3],> 500 µM
CCNC(=O)[C@H](C)NC(=O)Cn1cc(-c2c(C)noc2C)cn1,IC50,[2],0.05 µM
Cn1cc(-c2onc(C(=O)O)c2CO)c2ccccc21,IC50,[2],0.91 µM
Cn1c(=O)c2[nH]cnc2n(C)c1=O [THEOPHYLLINE ANHYDROUS],IC50,[4],320 µM
O=C(O)c1cccc(-c2ccncc2)c1,Ki,[5],> 500 µM
O=C(Nc1ccc(C(=O)N[C@H]2c3cccc(O)c3C[C@H]2C(=O)O)cc1)NC1CC1,IC50,[6],> 180 µM
same,IC50,Coagulation factor XII,390 µM
O=C1Nc2cc(C(F)(F)F)ccc2C1(O)c1cc(Cl)ccc1O (configuration not stated),Kd,[1],520 µM
C=CC(=O)Nc1cc(-c2cn(C)c3ccccc23)ncn1,IC50,[3],0.9 µM
Cc1cc(C)on1,IC50,[2],84 µM
